# Assay results published in ChEMBL document CHEMBL1201862, “PubChem BioAssay data set” (2004).
# The source made the active and inactive calls.
# Experiments:
# Format in all cases: functional
# [1] = target: Mitogen-activated protein kinase 8 (Homo sapiens, UniProt P45983);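 note: value comes from one member of a kinome-wide kinase profiling panel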
# [2] = target: Serine/threonine-protein kinase PAK 1 (Homo sapiens, UniProt Q13153)
# [3] = target: Fibroblast growth factor receptor 1 (Homo sapiens, UniProt P11362)
# [4] = target: T1, Tyrosine-protein kinase JAK3 (Homo sapiens, UniProt P52333)
# T1 sequence (P52333 whole entry): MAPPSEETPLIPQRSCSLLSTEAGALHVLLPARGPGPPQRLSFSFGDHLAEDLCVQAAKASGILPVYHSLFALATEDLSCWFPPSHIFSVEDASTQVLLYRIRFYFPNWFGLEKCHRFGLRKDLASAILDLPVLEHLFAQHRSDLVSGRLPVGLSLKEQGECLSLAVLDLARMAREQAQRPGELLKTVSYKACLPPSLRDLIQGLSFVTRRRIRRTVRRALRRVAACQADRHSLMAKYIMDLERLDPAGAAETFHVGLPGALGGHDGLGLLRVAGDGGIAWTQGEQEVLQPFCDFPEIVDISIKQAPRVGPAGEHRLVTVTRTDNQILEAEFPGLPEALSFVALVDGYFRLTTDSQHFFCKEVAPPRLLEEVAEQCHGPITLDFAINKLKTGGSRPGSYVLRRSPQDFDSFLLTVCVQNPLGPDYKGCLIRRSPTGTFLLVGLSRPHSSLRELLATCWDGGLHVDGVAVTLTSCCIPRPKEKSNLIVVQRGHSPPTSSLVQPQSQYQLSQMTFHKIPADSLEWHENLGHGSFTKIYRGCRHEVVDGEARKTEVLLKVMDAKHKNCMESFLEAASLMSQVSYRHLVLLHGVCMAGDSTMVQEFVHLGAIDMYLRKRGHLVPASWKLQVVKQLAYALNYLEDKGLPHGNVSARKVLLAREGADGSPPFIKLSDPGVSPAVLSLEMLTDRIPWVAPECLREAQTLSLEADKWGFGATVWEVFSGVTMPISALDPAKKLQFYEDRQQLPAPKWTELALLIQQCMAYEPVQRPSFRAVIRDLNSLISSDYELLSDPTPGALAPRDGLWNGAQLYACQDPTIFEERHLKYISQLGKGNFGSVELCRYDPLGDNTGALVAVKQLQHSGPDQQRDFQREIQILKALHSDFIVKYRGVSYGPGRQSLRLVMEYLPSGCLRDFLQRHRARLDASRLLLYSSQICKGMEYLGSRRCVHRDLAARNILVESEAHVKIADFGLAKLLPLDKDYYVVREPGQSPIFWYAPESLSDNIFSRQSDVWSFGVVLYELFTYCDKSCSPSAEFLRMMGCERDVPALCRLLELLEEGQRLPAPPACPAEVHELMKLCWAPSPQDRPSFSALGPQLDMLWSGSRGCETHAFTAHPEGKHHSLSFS
# [5] = target: T2, Tyrosine-protein kinase ITK/TSK (Homo sapiens, UniProt Q08881);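 note: affinity for ITK measured as one member of a broad kinase panel profiling binding across the kinome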
# T2 sequence (Q08881 whole entry): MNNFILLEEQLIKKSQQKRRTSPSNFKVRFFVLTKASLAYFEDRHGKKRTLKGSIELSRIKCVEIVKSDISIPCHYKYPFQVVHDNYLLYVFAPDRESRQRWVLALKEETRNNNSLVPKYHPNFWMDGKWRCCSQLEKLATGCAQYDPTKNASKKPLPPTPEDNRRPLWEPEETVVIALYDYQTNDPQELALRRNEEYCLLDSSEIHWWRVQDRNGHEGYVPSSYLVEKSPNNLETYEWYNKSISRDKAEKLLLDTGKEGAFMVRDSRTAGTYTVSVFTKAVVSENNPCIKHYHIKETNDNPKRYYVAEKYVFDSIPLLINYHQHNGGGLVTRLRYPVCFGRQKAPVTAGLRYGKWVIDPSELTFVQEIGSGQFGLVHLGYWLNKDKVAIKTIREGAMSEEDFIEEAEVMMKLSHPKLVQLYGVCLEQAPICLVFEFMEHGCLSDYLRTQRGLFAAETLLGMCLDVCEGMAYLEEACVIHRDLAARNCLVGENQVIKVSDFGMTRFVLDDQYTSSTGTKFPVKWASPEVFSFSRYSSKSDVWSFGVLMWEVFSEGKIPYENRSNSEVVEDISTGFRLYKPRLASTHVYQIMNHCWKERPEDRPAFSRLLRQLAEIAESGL
# [6] = target: MAP kinase-activated protein kinase 3 (Homo sapiens, UniProt Q16644);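 note: value comes from a kinome-wide profiling panel in which MAPKAPK3 is one of the panel members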
# [7] = target: Serine/threonine-protein kinase Chk1 (Homo sapiens, UniProt O14757);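 note: measured as one member of a kinome-wide kinase profiling panel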
# [8] = target: Casein kinase I isoform delta (Homo sapiens, UniProt P48730);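 note: measured as one member (CSNK1D) of a kinome panel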
# [9] = target: Tyrosine-protein kinase ABL1 (Homo sapiens, UniProt P00519)
# Ephrin type-A receptor 2 = Ephrin type-A receptor 2 (Homo sapiens, UniProt P29317);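 note: EPHA2 tested as one member of a kinome-wide kinase panel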
# [10] = target: T3, Interleukin-1 receptor-associated kinase 4 (Homo sapiens, UniProt Q9NWZ3)
# T3 sequence (Q9NWZ3 whole entry): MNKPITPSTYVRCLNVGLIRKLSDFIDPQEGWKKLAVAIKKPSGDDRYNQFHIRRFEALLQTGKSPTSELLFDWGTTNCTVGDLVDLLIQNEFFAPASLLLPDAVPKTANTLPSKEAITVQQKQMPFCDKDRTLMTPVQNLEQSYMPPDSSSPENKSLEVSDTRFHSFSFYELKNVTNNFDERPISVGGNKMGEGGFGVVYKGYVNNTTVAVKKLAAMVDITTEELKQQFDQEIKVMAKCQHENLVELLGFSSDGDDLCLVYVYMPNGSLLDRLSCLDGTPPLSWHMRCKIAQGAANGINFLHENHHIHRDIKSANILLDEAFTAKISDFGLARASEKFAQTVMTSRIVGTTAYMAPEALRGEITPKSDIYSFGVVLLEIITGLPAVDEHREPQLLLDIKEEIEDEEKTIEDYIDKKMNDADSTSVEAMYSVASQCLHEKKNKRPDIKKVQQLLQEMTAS
# [11] = target: Rho-associated protein kinase 1 (Homo sapiens, UniProt Q13464);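 note: measured within a broad kinome-wide panel profiling many kinases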
# [12] = target: Calcium/calmodulin-dependent protein kinase type 1 (Homo sapiens, UniProt Q14012)
# [13] = target: Tyrosine-protein kinase Fyn (Homo sapiens, UniProt P06241)
# [14] = target: Receptor tyrosine-protein kinase erbB-4 (Homo sapiens, UniProt Q15303);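 note: ERBB4 member of a kinome-wide kinase profiling panel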
# [15] = target: Macrophage colony-stimulating factor 1 receptor (Homo sapiens, UniProt P07333);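 note: value comes from the Navigating the Kinome screening panel, CSF1R member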
# Macrophage colony-stimulating factor 1 receptor, sequence (P07333 whole entry): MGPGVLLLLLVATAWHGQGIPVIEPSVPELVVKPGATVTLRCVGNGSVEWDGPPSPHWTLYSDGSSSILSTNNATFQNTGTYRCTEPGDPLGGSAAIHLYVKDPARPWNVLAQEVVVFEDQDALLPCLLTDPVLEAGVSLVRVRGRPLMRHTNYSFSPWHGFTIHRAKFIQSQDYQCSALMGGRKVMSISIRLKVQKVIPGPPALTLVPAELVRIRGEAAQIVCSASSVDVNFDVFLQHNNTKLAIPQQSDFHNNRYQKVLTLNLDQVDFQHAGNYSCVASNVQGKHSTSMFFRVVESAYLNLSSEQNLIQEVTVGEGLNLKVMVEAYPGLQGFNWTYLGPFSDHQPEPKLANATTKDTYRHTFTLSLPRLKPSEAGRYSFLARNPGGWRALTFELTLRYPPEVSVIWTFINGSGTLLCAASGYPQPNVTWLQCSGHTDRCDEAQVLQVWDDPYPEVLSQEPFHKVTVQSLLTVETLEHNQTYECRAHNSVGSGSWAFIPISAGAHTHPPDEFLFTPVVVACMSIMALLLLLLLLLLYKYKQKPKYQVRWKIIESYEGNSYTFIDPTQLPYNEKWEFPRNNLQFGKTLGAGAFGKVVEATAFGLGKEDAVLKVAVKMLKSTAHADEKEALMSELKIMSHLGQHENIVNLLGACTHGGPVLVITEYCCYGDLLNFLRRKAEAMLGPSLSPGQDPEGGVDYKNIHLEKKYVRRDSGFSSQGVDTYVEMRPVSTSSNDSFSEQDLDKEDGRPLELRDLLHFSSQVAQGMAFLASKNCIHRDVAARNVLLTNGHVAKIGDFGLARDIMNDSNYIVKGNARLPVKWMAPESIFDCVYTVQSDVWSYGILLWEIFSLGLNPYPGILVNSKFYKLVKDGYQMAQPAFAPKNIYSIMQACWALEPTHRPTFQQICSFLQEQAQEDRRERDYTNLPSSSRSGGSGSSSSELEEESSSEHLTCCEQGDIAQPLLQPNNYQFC
# Mitogen-activated protein kinase 8, sequence (P45983 whole entry): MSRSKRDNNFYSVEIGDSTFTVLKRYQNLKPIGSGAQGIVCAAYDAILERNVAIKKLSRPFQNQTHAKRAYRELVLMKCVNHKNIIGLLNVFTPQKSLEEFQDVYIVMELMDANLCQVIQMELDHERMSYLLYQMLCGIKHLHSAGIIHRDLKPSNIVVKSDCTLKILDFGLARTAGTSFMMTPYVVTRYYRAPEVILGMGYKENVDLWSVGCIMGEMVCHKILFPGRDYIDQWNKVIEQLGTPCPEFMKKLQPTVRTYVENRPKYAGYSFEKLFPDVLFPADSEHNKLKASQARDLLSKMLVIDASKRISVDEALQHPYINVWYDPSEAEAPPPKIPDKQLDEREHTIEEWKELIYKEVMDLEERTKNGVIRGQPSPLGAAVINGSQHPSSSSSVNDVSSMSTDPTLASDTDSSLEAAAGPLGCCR
# Fibroblast growth factor receptor 1, sequence (P11362 whole entry): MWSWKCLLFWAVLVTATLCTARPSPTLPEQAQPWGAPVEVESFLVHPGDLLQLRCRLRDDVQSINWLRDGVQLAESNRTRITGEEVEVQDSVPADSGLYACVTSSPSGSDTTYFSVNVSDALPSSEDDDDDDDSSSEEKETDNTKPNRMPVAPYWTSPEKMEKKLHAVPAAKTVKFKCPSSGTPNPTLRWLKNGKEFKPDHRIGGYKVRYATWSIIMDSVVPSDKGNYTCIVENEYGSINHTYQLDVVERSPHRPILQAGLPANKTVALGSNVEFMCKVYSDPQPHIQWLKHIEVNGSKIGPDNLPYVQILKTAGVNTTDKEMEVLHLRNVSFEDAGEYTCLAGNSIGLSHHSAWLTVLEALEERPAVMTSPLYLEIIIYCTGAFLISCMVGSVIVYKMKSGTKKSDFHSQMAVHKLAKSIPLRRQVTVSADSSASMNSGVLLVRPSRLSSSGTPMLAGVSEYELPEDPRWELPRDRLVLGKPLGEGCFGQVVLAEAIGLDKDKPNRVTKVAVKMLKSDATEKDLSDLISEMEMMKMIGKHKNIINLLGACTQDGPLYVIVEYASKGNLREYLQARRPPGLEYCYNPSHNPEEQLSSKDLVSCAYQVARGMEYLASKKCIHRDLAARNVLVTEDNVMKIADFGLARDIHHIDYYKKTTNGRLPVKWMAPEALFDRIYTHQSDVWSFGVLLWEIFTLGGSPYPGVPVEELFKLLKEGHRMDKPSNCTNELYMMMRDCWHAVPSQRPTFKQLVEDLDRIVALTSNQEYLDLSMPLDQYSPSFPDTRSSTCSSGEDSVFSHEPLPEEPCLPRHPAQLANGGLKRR
# Ephrin type-A receptor 2, sequence (P29317 whole entry): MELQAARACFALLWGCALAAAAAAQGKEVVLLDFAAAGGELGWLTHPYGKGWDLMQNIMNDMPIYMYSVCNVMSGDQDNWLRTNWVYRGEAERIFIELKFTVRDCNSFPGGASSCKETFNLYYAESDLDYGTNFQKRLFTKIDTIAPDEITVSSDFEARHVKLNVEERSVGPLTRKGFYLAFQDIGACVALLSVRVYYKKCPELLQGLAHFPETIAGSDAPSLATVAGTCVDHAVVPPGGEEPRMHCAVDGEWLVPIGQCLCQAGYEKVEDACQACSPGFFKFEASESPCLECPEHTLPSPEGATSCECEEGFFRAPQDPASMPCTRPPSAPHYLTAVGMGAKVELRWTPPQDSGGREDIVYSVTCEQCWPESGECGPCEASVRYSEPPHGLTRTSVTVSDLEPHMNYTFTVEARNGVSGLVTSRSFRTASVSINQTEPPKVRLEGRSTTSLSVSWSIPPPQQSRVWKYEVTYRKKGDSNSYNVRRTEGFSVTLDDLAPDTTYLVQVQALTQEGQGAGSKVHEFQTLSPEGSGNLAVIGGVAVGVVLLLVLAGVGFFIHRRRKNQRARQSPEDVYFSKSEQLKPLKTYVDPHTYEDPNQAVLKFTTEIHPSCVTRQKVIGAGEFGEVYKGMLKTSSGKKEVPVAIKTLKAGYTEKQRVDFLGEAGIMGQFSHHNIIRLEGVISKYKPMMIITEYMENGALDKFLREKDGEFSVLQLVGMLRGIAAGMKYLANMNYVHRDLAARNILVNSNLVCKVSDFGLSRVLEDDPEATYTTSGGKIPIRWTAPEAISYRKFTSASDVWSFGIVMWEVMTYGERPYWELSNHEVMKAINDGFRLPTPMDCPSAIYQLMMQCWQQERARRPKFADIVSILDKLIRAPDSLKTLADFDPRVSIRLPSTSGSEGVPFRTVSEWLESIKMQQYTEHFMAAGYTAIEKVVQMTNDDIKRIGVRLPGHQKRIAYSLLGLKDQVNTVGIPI
# MAP kinase-activated protein kinase 3, sequence (Q16644 whole entry): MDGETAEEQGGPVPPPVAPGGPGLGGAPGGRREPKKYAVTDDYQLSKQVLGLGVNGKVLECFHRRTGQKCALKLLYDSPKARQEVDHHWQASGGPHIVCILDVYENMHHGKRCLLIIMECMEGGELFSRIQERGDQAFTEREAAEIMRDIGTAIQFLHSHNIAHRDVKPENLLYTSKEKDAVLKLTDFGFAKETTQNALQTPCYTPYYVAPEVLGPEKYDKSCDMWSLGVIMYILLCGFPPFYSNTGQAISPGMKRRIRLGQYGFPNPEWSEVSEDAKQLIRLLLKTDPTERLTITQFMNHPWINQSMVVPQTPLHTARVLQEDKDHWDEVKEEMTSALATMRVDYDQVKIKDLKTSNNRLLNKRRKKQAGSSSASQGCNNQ
# Serine/threonine-protein kinase PAK 1, sequence (Q13153 whole entry): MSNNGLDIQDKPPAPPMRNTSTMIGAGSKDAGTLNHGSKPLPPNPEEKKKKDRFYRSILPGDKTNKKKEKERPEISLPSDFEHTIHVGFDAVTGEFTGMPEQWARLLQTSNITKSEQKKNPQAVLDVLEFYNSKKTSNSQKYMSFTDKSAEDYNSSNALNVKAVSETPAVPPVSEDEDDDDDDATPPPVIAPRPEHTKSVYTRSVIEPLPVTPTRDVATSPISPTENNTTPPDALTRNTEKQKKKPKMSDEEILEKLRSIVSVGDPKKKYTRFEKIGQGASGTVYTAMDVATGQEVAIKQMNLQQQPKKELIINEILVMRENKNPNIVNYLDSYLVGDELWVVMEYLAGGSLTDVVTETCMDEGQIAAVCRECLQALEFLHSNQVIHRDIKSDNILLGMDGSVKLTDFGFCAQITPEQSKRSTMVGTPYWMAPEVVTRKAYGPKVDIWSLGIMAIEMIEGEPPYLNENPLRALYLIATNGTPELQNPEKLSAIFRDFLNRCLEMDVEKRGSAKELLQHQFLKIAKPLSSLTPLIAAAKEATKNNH
# Calcium/calmodulin-dependent protein kinase type 1, sequence (Q14012 whole entry): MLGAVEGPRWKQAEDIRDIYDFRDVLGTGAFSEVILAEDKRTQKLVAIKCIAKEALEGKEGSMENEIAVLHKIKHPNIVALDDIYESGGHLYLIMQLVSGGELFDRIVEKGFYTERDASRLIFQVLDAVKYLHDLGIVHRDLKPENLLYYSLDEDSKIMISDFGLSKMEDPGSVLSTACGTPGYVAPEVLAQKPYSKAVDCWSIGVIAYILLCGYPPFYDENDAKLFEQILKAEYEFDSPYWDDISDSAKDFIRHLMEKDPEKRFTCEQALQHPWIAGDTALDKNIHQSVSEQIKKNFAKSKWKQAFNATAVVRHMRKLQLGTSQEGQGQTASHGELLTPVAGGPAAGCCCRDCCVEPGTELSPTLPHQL
# Casein kinase I isoform delta, sequence (P48730 whole entry, canonical isoform): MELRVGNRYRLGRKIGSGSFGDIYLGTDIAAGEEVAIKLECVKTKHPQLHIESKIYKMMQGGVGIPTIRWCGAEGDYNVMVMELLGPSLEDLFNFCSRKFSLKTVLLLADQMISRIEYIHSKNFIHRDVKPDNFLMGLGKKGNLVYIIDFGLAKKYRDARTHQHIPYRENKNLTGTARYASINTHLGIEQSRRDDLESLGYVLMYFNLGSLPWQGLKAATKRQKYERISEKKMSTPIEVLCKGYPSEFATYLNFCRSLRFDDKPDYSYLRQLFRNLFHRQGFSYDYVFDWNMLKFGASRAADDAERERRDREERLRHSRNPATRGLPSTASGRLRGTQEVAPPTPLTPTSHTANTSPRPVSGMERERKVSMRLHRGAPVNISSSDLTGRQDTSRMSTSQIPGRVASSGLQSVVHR
Ki [1],Ki [2],Ki [3],Ki [4],Ki [5],Ki [6],Ki [7],Ki [8],Ki [9],Ki (Ephrin type-A receptor 2),Ki [10],Ki [11],Ki [12],Ki [13],Ki [14],Ki [15],SMILES
> 3.16 µM (inactive),> 10 µM (inactive),> 5.01 µM (inactive),0.1 µM (active),0.398 µM (active),> 10 µM (inactive),> 7.94 µM (inactive),2 µM (active),> 0.631 µM (inactive),> 3.16 µM (inactive),3.98 µM (active),> 10 µM (inactive),> 7.94 µM (inactive),0.398 µM (active),> 3.98 µM (inactive),> 2.51 µM (inactive),Cc1c(C=O)c(O)n2c(nc3ccccc32)c1C#N
> 3.16 µM (inactive),2 µM (active),> 5.01 µM (inactive),1.26 µM (active),> 1.58 µM (inactive),> 10 µM (inactive),3.98 µM (active),0.316 µM (active),> 0.631 µM (inactive),> 3.16 µM (inactive),0.398 µM (active),0.00794 µM (active),0.501 µM (active),> 0.794 µM (inactive),> 3.98 µM (inactive),> 2.51 µM (inactive),Cc1n[nH]c2cnc(-c3cncc(OCC(N)Cc4cccc(C(F)(F)F)c4)c3)cc12 (configuration not stated)
